Results on seven compounds are retold here after patent publication US20100137448A1, “Methods for Treating Neuropsychiatric Disorders with NMDA Receptor Antagonists” (priority 2000, published 2010).

Data set [1] concerns precontracted aortic vessel. The experiment in a line: Relaxation of norepinephrine-precontracted rabbit aortic rings. It is filed as tissue-based. The procedure: New Zealand white female rabbits weighing 3-4 kilograms were anesthetized with sodium pentobarbital, 13 milligram per kilogram. Descending thoracic aorta were isolated, the vessels were cleaned of adherent tissue and the endothelium was removed by a gentle rubbing with a cotton-tipped applicator inserted into the lumen. The vessels were cut into 5 millimeter rings and mounted on stirrups connected to transducers by which changes in isometric tension were recorded (model TO3C, Grass Instruments, Quincy, Mass.). Vessel rings were suspended in 20 mL of oxygenated Krebs buffer at 37° C. and sustained contractions were induced with 1 μM norepinephrine. The vessels were then relaxed in a dose-dependent fashion ([…] through 10^−5 M compound 8). In some experiments vessels were pretreated with methylene blue or […] hemoglobin to block relaxations.
Relaxations were attenuated by methylene blue (c) and hemoglobin (d) indicating an NO-related effect. (b) is a control with solvent.

The next data set relates to C57B1/6 mice. The experiment in a line: Murine cerebral ischemia model, intraluminal suture MCA occlusion. It is filed as in vivo. As to the method: The intraluminal suture technique was used to produce a 2 hr occlusion of the middle cerebral artery (MCA), following the same protocol for focal cerebral ischemial reperfusion as published previously (Chen, et al., Neuroscience (1998) 86: 1121). However, here C57B1/6 mice were used instead of rats. […] To produce a neuroprotective concentration of compound 7, the loading dose was 100 mg/kg i.p. and the maintenance dose was 40 mg/kg i.p. every 12 hr. In each case, drug or vehicle control was initially administered 2 hr after MCA occlusion. […] The animals were sacrificed and analyzed with TTC staining 48 hr after MCA occlusion (Chen, et al., Neuroscience (1998) 86: 1121).

In another data set the test system is cerebrocortical neurons. Briefly: NMDA-induced apoptosis of cerebrocortical neurons (in vitro protection). It is filed as cell-based. The procedure:
Cerebrocortical cultures were exposed to 300 μM NMDA for 20 mm with or without various concentrations of compound 7. The next day cultures were analyzed by neuronal apoptosis as described in Example 19.
Under these conditions (300 μM NMDA exposure for 20 mm, followed by washout), neuronal apoptosis was monitored 24 hours later by propidium iodide uptake and morphology of fixed, permeabilized neurons, among other techniques (Bonfoco et al., Proc Natl Acad Sci USA (1995) 92: 7162). NMDA induced about 20% apoptosis of neurons, and that 25-100 μM compound 7 afforded protection from this damage (P<0.001, FIG. 5).

For data set [2] the following is noted: loading dose 20 mg/kg i.p., maintenance 1 mg/kg/12 hours; cited from earlier work.
The conditions of data set [3]: humans, 5 to 30 mg/day; cited from earlier work.
The conditions of data set [4]: cited from earlier work.
Another data set deals with human albumin (Homo sapiens, UniProt P02768). As to conditions: cited from earlier work.
human albumin, sequence (P02768 25-609): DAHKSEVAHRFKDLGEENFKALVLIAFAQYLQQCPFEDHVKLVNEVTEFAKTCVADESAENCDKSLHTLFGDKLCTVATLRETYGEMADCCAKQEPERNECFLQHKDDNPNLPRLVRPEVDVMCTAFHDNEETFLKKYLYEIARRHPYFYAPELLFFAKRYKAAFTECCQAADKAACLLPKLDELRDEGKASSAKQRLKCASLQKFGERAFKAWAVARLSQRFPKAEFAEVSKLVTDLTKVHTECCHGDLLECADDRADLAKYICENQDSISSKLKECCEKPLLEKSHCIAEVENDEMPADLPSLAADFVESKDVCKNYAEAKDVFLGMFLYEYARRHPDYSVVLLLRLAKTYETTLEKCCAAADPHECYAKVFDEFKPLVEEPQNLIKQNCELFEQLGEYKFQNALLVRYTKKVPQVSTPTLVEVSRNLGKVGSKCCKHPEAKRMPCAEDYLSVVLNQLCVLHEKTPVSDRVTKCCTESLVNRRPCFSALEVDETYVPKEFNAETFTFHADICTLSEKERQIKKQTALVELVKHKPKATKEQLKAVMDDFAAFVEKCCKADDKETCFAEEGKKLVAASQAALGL

Entries after “also recorded” stand apart in the source; their conditions may differ.

In the case of “1-amino-3,5-dimethyl-7-hydroxyadamantane hydrochloride [Compound 9]”, the “effect on blood vessel, compared with solvent (EtOH)” value in data set [1] (FIG. 8, hydrochloride) is “either no effect or slight blood vessel contractions”; in data set [1] (FIG. 8, listed as compound 9, hydrochloride), “either no effect or slight contractions of blood vessels”.
What is called melting point is the temperature, or range, at which the solid turns liquid. `CC(=O)NC12CC3(C)CC(C)(CC(O)(C3)C1)C2` [Compound 3, 1-acetamido-3,5-dimethyl-7-hydroxyadamantane] gave a melting point of 194 to 195 °C.
In the case of `CC12CC3(C)CC(N)(C1)CC(O[N+](=O)[O-])(C2)C3.Cl` [Compound 7, 1-amino-3,5-dimethyl-7-nitrateadamantane hydrochloride], the “effect on blood vessel at 10 μM” value in data set [1] (10 μM concentration, FIG. 8) is reported as “modest relaxation”. Besides, the “cerebral damage after stroke” value with C57B1/6 mice (2 hr MCA occlusion, loading 100 mg/kg i.p., maintenance 40 mg/kg i.p. every 12 hr, first dose 2 hr after occlusion, TTC staining 48 hr, n=3, P<0.03 from control, P<0.05 from memantine) is listed as “effective in decreasing cerebral damage after stroke”. Further, the “neuroprotection compared with memantine” value in the data set on C57B1/6 mice (memantine 20 mg/kg i.p. loading, 1 mg/kg/12 hours maintenance, compound 7 100 mg/kg i.p. loading, 40 mg/kg i.p. every 12 hr) is listed as “more neuroprotective than memantine”. Moreover, the “concentration affording protection from NMDA-induced apoptosis” value in the data set on cerebrocortical neurons (300 μM NMDA 20 mm, washout, apoptosis monitored 24 hours later, NMDA induced about 20% apoptosis, P<0.001) was in the range of 25 to 100 µM. Further, in the data set on cerebrocortical neurons (300 μM NMDA for 20 mm, analysed next day, various concentrations, dose-dependent, P<0.001, n=3 cultures), the NMDA-induced neuronal apoptosis result was “largely prevented”.
For the compound `CC(=O)NC12CC3(C)CC(C)(C1)CC(O[N+](=O)[O-])(C3)C2` [Compound 8, 1-acetamido-3,5-dimetbyl-7-nitrateadamantane], in data set [1] (endothelium-denuded rings, 1 μM norepinephrine), the “effect on precontracted aortic vessel” value is given as “relaxes a precontracted aortic vessel in a dose-dependent fashion”. Moreover, in data set [1] (vessels pretreated with hemoglobin), the “relaxations after pretreatment with hemoglobin” value is recorded as “attenuated”. For the same compound, the “relaxations after pretreatment with methylene blue” value in data set [1] (vessels pretreated with methylene blue) was “attenuated”.
For the compound `CC12CC3(C)CC(O)(C1)CC(N(Cc1ccccc1)Cc1ccccc1)(C2)C3` [Compound 10, 1,1-dibenzylamino-3,5-dimethyl-7-hydroxy-adamantane], the “effect on blood vessel, compared with solvent (EtOH)” value in data set [1] (FIG. 8) was “either no effect or slight contractions of blood vessels; also recorded: either no effect or slight blood vessel contractions”.
In turn, `CC(=O)NC12CC3(C)CC(C)(CC(CO)(C3)C1)C2` [Compound 17, 1-Acetamido-3,5-dimethyl-7-hydroxymethyladamantane] showed a melting point of 152 to 153 °C.
In the case of `CC12CC3CC(C)(C1)CC(N)(C3)C2` [memantine, 1-amino-3,5-dimethyladamantane], in data set [2], the “parenchymal levels in the brain” value was 1 to 10 µM. For the same compound, the “mean CSF/serum ratio” value in data set [3] is reported as 0.52. For the same compound, in data set [4] (biphasic elimination, first phase), the “average half-life, first therapeutically relevant phase” value was 4 to 9 h. In addition, the “average half-life, second phase” value in data set [4] (biphasic elimination, second phase) is 40 to 65 h. Also, in data set [4] (in vivo), the “elimination by the renal route” value is on record as 75%-90% and the fecal excretion was 10%-25%. In addition, at human albumin, the “bound to human albumin” value is listed as less than 10%.
